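All cell lines were grown in 96-well plates and treated with compound for 48 hours. Abbreviation: GI50, concentration required for 50% inhibition of growth.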 Active and inactive are the calls of the source. Cut-off read from the data, not from the text of the source: active = GI50 up to about 1.1 µM and inactive = higher.
Columns and labels:
Assay in all cases: inhibition of tumour cell growth, NCI panel, 48 h
786-0 = tested on: 786-0
BT-549 = tested on: BT-549
COLO 205 = tested on: COLO 205
DU-145 = tested on: DU-145
HOP-62 = tested on: HOP-62
HOP-92 = tested on: HOP-92
Hs-578T = tested on: Hs-578T
M14 = tested on: M14
MCF7 = tested on: MCF7
MDA-N = tested on: MDA-N
MOLT-4 = tested on: MOLT-4
Malme-3M = tested on: Malme-3M
NCI-H226 = tested on: NCI-H226
NCI-H522 = tested on: NCI-H522
OVCAR-3 = tested on: OVCAR-3
OVCAR-5 = tested on: OVCAR-5
PC-3 = tested on: PC-3
SF-539 = tested on: SF-539
T47D = tested on: T47D
UO-31 = tested on: UO-31

Compound | GI50 (786-0) | GI50 (BT-549) | GI50 (COLO 205) | GI50 (DU-145) | GI50 (HOP-62) | GI50 (HOP-92) | GI50 (Hs-578T) | GI50 (M14) | GI50 (MCF7) | GI50 (MDA-N) | GI50 (MOLT-4) | GI50 (Malme-3M) | GI50 (NCI-H226) | GI50 (NCI-H522) | GI50 (OVCAR-3) | GI50 (OVCAR-5) | GI50 (PC-3) | GI50 (SF-539) | GI50 (T47D) | GI50 (UO-31)
Cc1cc(=O)oc2cc(OC(=O)N(C)C)c(Cl)cc12 | 87.5 µM (inactive) | > 100 µM (inactive) | 95.9 µM (inactive) | > 100 µM (inactive) | 25.1 µM (inactive) | 82 µM (inactive) | > 100 µM (inactive) | 83.9 µM (inactive) | > 100 µM (inactive) | > 100 µM (inactive) | > 100 µM (inactive) | 84.3 µM (inactive) | 29.3 µM (inactive) | 57.7 µM (inactive) | > 100 µM (inactive) | > 100 µM (inactive) | > 100 µM (inactive) | 55.3 µM (inactive) | 85.9 µM (inactive) | > 100 µM (inactive)
Cc1cc(-c2cc(C(C)(C)C)c(O)c(C(C)(C)C)c2)c(C)cc1-c1cc(C(C)(C)C)c(O)c(C(C)(C)C)c1 | > 100 µM (inactive) | > 100 µM (inactive) | > 100 µM (inactive) | > 100 µM (inactive) | > 100 µM (inactive) | 12.1 µM (inactive) | > 100 µM (inactive) | > 100 µM (inactive) | > 100 µM (inactive) | > 100 µM (inactive) | > 100 µM (inactive) | > 100 µM (inactive) | > 100 µM (inactive) | > 100 µM (inactive) | > 100 µM (inactive) | > 100 µM (inactive) | > 100 µM (inactive) | > 100 µM (inactive) | > 100 µM (inactive) | > 100 µM (inactive)
COC(=O)C1(C(=O)OC)Cc2ccc(OC)cc2C2=C1C(=O)c1ccccc1C2=O | 4.75 µM (inactive) | 19.1 µM (inactive) | 20.3 µM (inactive) | 16.5 µM (inactive) | 7.08 µM (inactive) | 2.69 µM (inactive) | 8.93 µM (inactive) | 18.4 µM (inactive) | 2.55 µM (inactive) | 1.83 µM (inactive) | 1.53 µM (inactive) | 10.8 µM (inactive) | 17.7 µM (inactive) | 3.45 µM (inactive) | 0.282 µM (active) | 6.01 µM (inactive) | 1.87 µM (inactive) | 16.6 µM (inactive) | 1.51 µM (inactive) | 3.69 µM (inactive)
COc1cccc(C(=O)C(O)c2cccc(OC)c2OC)c1OC (stereo not given) | > 100 µM (inactive) | > 100 µM (inactive) | > 100 µM (inactive) | > 100 µM (inactive) | > 100 µM (inactive) | > 100 µM (inactive) | > 100 µM (inactive) | > 100 µM (inactive) | > 100 µM (inactive) | > 100 µM (inactive) | > 100 µM (inactive) | > 100 µM (inactive) | > 100 µM (inactive) | > 100 µM (inactive) | > 100 µM (inactive) | > 100 µM (inactive) | > 100 µM (inactive) | > 100 µM (inactive) | > 100 µM (inactive) | > 100 µM (inactive)
O=c1cc(/C=C/c2ccc(O)c(O)c2)cc(/C=C/c2ccc(O)c(O)c2)o1 | 14.3 µM (inactive) | 13.9 µM (inactive) | 12.1 µM (inactive) | 9.23 µM (inactive) | 10.5 µM (inactive) | 15.2 µM (inactive) | 8.05 µM (inactive) | 10.5 µM (inactive) | 4.05 µM (inactive) | 11.6 µM (inactive) | 1.92 µM (inactive) | 5.82 µM (inactive) | 14.9 µM (inactive) | 1.68 µM (inactive) | 7.71 µM (inactive) | 12.2 µM (inactive) | 9.16 µM (inactive) | 8.15 µM (inactive) | 8.79 µM (inactive) | 4.22 µM (inactive)
COC(COC(N)=O)C1=C(N2CC2)C(=O)C(C)=C(N2CC2)C1=O (stereo not given) [CARBOQUONE] | 0.0201 µM (active) | 0.103 µM (active) | 0.113 µM (active) | < 0.01 µM (active) | < 0.0154 µM (active) | 0.219 µM (active) | 0.218 µM (active) | 0.0395 µM (active) | < 0.01 µM (active) | 0.108 µM (active) | 0.0418 µM (active) | 0.0692 µM (active) | 0.0719 µM (active) | 0.0377 µM (active) | 0.0607 µM (active) | 0.106 µM (active) | 0.213 µM (active) | < 0.0198 µM (active) | 0.0435 µM (active) | 0.0307 µM (active)

— ChEMBL document CHEMBL1201862, “PubChem BioAssay data set” (2004)
